Patent US20260092054A1, “FUSED RING COMPOUND AND PHARMACEUTICAL CONTAINING SAME” (KAKEN PHARMACEUTICAL CO., LTD., priority 2022, published 2026)

How the values were obtained:
human STAT6/pIL-4Rα = target: T1, human STAT6/pIL-4Rα (Homo sapiens, UniProt P42226); assay: Binding inhibitory activity between human STAT6/pIL-4Rα by fluorescence polarization method; details: rhSTAT6 (123-658) / FAM-pIL-4Rα peptide
T1 construct: histidine tag
T1 sequence (P42226 123-658): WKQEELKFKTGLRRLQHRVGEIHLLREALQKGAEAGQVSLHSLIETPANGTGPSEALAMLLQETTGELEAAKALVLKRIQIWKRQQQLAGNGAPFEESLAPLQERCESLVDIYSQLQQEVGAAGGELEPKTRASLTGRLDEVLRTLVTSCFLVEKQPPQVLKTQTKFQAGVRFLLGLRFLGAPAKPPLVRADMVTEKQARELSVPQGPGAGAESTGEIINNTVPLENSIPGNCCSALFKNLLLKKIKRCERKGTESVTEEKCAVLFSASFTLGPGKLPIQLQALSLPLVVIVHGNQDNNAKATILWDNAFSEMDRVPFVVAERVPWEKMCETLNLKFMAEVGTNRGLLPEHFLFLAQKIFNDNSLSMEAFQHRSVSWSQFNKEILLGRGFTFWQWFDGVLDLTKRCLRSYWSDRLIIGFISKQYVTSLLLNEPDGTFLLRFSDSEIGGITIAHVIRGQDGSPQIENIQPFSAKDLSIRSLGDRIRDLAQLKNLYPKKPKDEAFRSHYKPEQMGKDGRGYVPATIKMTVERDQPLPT
Summary of the method: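 His-tagged human STAT6 (residues 123–658, E. coli-expressed) was preincubated with compound for 30 min at RT in the dark, in buffer e.g. 50 mM NaCl, 10 mM HEPES pH 7.0, 1 mM DTT, 1 mM EDTA, 0.01% NP-40. FAM-pIL-4Rα peptide was then added for 30 min. Fluorescence polarisation was read at 485/535 nm, with IC50 interpolated linearly between two points flanking 50%.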

human STAT6 = assay: Human STAT6 dependent reporter activity (IL-4 stimulated STAT6 reporter assay using STAT6-HEK293 cells); type: cell-based; details: Homo sapiens, IL-4 stimulation, luciferase activity, read-out: Inhibition rate (%); for inhibition at 0.1 µM: compound 0.1 μmol/L; for inhibition at 1 µM: compound 1 μmol/L

| SMILES | IC50 (human STAT6/pIL-4Rα) [nM] | inhibition at 0.1 µM (human STAT6) [%] | inhibition at 1 µM (human STAT6) [%] |
| --- | --- | --- | --- |
| CCn1c(-c2ccc(-n3ncn(C)c3=O)cc2)cc2ccnc(C(=O)Nc3ccc(F)c(C(N)=O)c3)c21 [Ex. 144] | 370 | 48 | 99 |
| CCn1c(-c2ccc(N3CCCC3=O)cc2)cc2cc(C(F)(F)F)cc(C(=O)Nc3ccc(F)c(C(N)=O)c3)c21 [Ex. 146] | 750 | 55 | 87 |
| CCn1c(-c2ccc(C(=O)N(C)C)cc2)cc2ccnc(C(=O)Nc3ccc(F)c(C(=O)NCC#N)c3)c21 [Ex. 148] | 330 | 86 |  |
| CCn1c(-c2ccc(-n3c(C)nn(C)c3=O)nc2)cc2cccc(C(=O)Nc3ccc(F)c(C(N)=O)c3)c21 [Ex. 151] | 610 | 26 | 77 |
| CCc1nn(C)c(=O)n1-c1ccc(-c2cc3cc(C(F)(F)F)cc(C(=O)Nc4ccc(F)c(C(N)=O)c4)c3n2CC)cc1 [Ex. 155] | 380 | 69 | 100 |
| CCn1c(-c2ccc(N3C(=O)C(C)CC3C)nc2)cc2cc(C(F)(F)F)cc(C(=O)Nc3ccc(F)c(C(N)=O)c3)c21 (stereo not drawn) [Ex. 157] | 310 | 62 |  |
| CCn1c(-c2ccc(N3C(=O)C(C)CC3C)cc2)cc2cccc(C(=O)Nc3ccc(F)c(C(N)=O)c3)c21 (stereo not drawn) [Ex. 158] | 730 | 44 | 96 |
| COCCn1c(-c2ccc(-n3c(C)nn(C)c3=O)cc2)cc2cc(C(F)(F)F)cc(C(=O)Nc3cccc(C(=O)Nc4cc[nH]n4)c3)c21 [Ex. 163] | 270 | 60 | 99 |
| CCn1c(-c2ccc(-n3c(C)nn(C)c3=O)cc2)cc2ccnc(C(=O)Nc3cccc(C(=O)Nc4cn(C)c(=O)n(C)c4=O)c3)c21 [Ex. 166] | 350 | 76 | 99 |
| CCn1c(-c2ccc(-n3c(C)nn(C)c3=O)cc2)cc2ccnc(C(=O)Nc3cccc(C(=O)Nc4cccn(C)c4=O)c3)c21 [Ex. 169] | 400 | 81 | 99 |
| CNC(=O)c1cccc(NC(=O)c2cc(C(F)(F)F)cc3cc(-c4ccc(-n5c(C)nn(C)c5=O)cc4)n(CCOC)c23)n1 [Ex. 172] | 380 | 17 | 83 |
| CCn1ccc(NC(=O)c2cccc(NC(=O)c3cc(C(F)(F)F)cc4cc(-c5ccc(-n6c(C)nn(C)c6=O)cc5)n(CCOC)c34)c2)n1 [Ex. 177] | 300 | 99 |  |
| COCCn1c(-c2ccc(-n3c(C)nn(C)c3=O)cc2)cc2cc(C(F)(F)F)cc(C(=O)Nc3cccc(C(=O)Nc4ccn(C5CC5)n4)c3)c21 [Ex. 178] | 280 | 100 |  |
| COCCn1c(-c2ccc(-n3c(C)nn(C)c3=O)cc2)cc2cc(C(F)(F)F)cc(C(=O)Nc3cccc(C(=O)Nc4cc(C#N)n(C)n4)c3)c21 [Ex. 179] | 320 | 93 |  |
| COCCn1c(-c2ccc(-n3c(C)nn(C)c3=O)cc2)cc2cc(C(F)(F)F)cc(C(=O)Nc3cccc(C(=O)Nc4ccc(C)nn4)c3)c21 [Ex. 182] | 350 | 52 | 100 |
| CCn1c(-c2ccc(-n3c(C)nn(C)c3=O)cc2)cc2ccnc(C(=O)Nc3ccc(F)c(C(=O)Nc4cc[nH]n4)c3)c21 [Ex. 185] | 470 | 34 | 96 |
| CCn1c(-c2ccc(-n3c(C)nn(C)c3=O)cc2)cc2ccnc(C(=O)Nc3cccc(C(=O)Nc4ccc(C)n(C)c4=O)c3)c21 [Ex. 187] | 340 | 88 |  |

Further lines, with some results ahead:

| IC50 (human STAT6/pIL-4Rα) [nM] | SMILES | inhibition at 0.1 µM (human STAT6) [%] | inhibition at 1 µM (human STAT6) [%] |
| --- | --- | --- | --- |
| 280 | CCn1c(-c2ccc(-n3c(C)nn(C)c3=O)nc2)cc2cccc(C(=O)Nc3cccc(C(N)=O)c3F)c21 [Ex. 145] | 53 | 97 |
| 780 | CCn1c(-c2ccc(N3C(=O)C(C)CC3C)cc2)cc2ccnc(C(=O)Nc3ccc(F)c(C(=O)NCC#N)c3)c21 (stereo not drawn) [Ex. 147] | 48 | 91 |
| 330 | CCn1c(-c2ccc(NC(C)=O)cc2)cc2ccnc(C(=O)Nc3ccc(F)c(C(=O)NCC#N)c3)c21 [Ex. 149] | 25 | 84 |
| 240 | CCn1c(-c2ccc(N3CCOCC3=O)cc2)cc2ccnc(C(=O)Nc3ccc(F)c(C(=O)NCC#N)c3)c21 [Ex. 150] | 38 | 89 |
| 650 | CCn1c(-c2ccc(-n3c(C)nn(C)c3=O)cc2C(F)(F)F)cc2cc(C(F)(F)F)cc(C(=O)Nc3ccc(F)c(C(N)=O)c3)c21 [Ex. 152] | 38 | 84 |
| 940 | CCn1c(-c2ccc(C(=O)N(C)C)cc2)cc2cc(C(F)(F)F)cc(C(=O)Nc3ccc(F)c(C(N)=O)c3)c21 [Ex. 153] | 25 | 93 |
| 280 | CCn1c(-c2ccc(-n3c(C(F)F)nn(C)c3=O)cc2)cc2cc(C(F)(F)F)cc(C(=O)Nc3ccc(F)c(C(N)=O)c3)c21 [Ex. 154] | 52 | 99 |
| 400 | CCn1c(-c2ccc(-n3ncn(C)c3=O)cc2)cc2cccc(C(=O)Nc3ccc(F)c(C(N)=O)c3)c21 [Ex. 156] | 46 | 99 |
| 530 | CCn1c(-c2ccc(N3C(=O)C(C)CC3C)cc2)cc2cc(C(F)(F)F)cc(C(=O)Nc3cccc(C(N)=O)c3)c21 (stereo not drawn) [Ex. 159] | 50 | 95 |
| 410 | CCn1c(-c2ccc(N3C(=O)C(C)CC3C)cc2)cc2cc(C(F)(F)F)cc(C(=O)Nc3ccc(F)c(C(N)=O)c3)c21 (stereo not drawn) [Ex. 160] | 93 | 100 |
| 870 | CCn1c(-c2ccc(N3C(=O)C(C)CC3C)cc2)cc2cc(C(F)(F)F)cc(C(=O)Nc3cccc(C(N)=O)c3F)c21 (stereo not drawn) [Ex. 161] | 86 | 99 |
| 200 | CCn1c(-c2ccc(-n3c(C)nn(C)c3=O)cc2)cc2ccnc(C(=O)Nc3cccc(C(=O)Nc4cc(C)cn(C)c4=O)c3)c21 [Ex. 165] | 86 | 100 |
| 240 | CCn1c(-c2ccc(-n3c(C)nn(C)c3=O)cc2)cc2ccnc(C(=O)Nc3cccc(C(=O)Nc4cncn(C)c4=O)c3)c21 [Ex. 167] | 90 | 99 |
| 350 | CCn1c(-c2ccc(-n3c(C)nn(C)c3=O)cc2)cc2ccnc(C(=O)Nc3ccc(F)c(C(=O)NCC#N)c3)c21 [Ex. 168] | 60 | 99 |
| 400 | CCn1c(-c2ccc(-n3c(C)nn(C)c3=O)cc2)cc2cc(C(F)(F)F)cc(C(=O)Nc3cccc(C(=O)NCC(=O)N(C)C)c3)c21 [Ex. 170] | 49 | 99 |
| 330 | COCCn1c(-c2ccc(-n3c(C)nn(C)c3=O)cc2)cc2cc(C(F)(F)F)cc(C(=O)Nc3cccc(C(N)=O)n3)c21 [Ex. 171] | 29 | 95 |
| 340 | COCCn1c(-c2ccc(-n3c(C)nn(C)c3=O)cc2)cc2cc(C(F)(F)F)cc(C(=O)Nc3cccc(C(=O)Nc4cccc(OC)n4)c3)c21 [Ex. 173] | 43 | 100 |
| 680 | COCCn1c(-c2ccc(-n3c(C)nn(C)c3=O)cc2)cc2cc(C(F)(F)F)cc(C(=O)Nc3cccc(C(=O)Nc4cccc(COC)n4)c3)c21 [Ex. 174] | 70 |  |
| 400 | COCCn1c(-c2ccc(-n3c(C)nn(C)c3=O)cc2)cc2cc(C(F)(F)F)cc(C(=O)Nc3cccc(C(=O)Nc4cccn(C)c4=O)c3)c21 [Ex. 175] | 65 |  |
| 280 | COCCn1c(-c2ccc(-n3c(C)nn(C)c3=O)cc2)cc2cc(C(F)(F)F)cc(C(=O)Nc3cccc(C(=O)Nc4cc(Cl)n(C)n4)c3)c21 [Ex. 176] | 93 |  |
| 300 | COCCn1c(-c2ccc(-n3c(C)nn(C)c3=O)cc2)cc2cc(C(F)(F)F)cc(C(=O)Nc3cccc(C(=O)Nc4ccn(CC5CC5)n4)c3)c21 [Ex. 180] | 100 |  |
| 310 | COCCn1c(-c2ccc(-n3c(C)nn(C)c3=O)cc2)cc2cc(C(F)(F)F)cc(C(=O)Nc3cccc(C(=O)Nc4ccn(CC(=O)OC)n4)c3)c21 [Ex. 181] | 94 |  |
| 230 | COCCn1c(-c2ccc(-n3c(C)nn(C)c3=O)cc2)cc2cc(C(F)(F)F)cc(C(=O)Nc3cccc(C(=O)Nc4ccn(CC#N)n4)c3)c21 [Ex. 183] | 86 |  |
| 330 | CCn1c(-c2ccc(-n3c(C)nn(C)c3=O)cc2)cc2ccnc(C(=O)Nc3cccc(C(=O)Nc4cccn(C(F)F)c4=O)c3)c21 [Ex. 186] | 43 | 96 |
